Measurements published in patent publication US6495160B2, “Biphasic multicomponent pharmaceutical dosage forms containing substances able to modify the partitioning of drugs” (Eurand International S.p.A., priority 1997, dated 2002).

Experiment: Apparent partition coefficient (Pm) between oil and water phases
Format: physicochemical
Settings: oily phase Labrafac Hydro, benzyl alcohol 1:1, 24 hours
Description: The water volume contained a starting concentration of active principle (C0) which was lower than the solubility of the active principle in each of the two phases. At the end of the experiment, the concentrations of active principle in the water phase (CA) were measured by cromatography (HPLC).

Partition coefficient (Pm) of the Active Principle (NMP 0% in aqueous phase): 1.75
Partition coefficient (Pm) of the Active Principle (NMP 5% in aqueous phase): 36.7
Partition coefficient (Pm) of the Active Principle (NMP 10% in aqueous phase): 63.5
Partition coefficient (Pm) of the Active Principle (NMP 15% in aqueous phase): 98.3
Partition coefficient (Pm) of the Active Principle (NMP 20% in aqueous phase): 29.6
SMILES: CS(=O)(=O)Nc1ccc([N+](=O)[O-])cc1Oc1ccccc1 [NIME, Nimesulide]
